Reference: EPA's ToxRefDB 2

Columns and labels:
rat [1] = conditions: Developmental neurotoxicity study; long evans; Injection; Subcutaneous; dose end: 132 PND; group: cannot be grouped; systemic / pathology gross / brain / reduced size + systemic / pathology microscopic / brain / depletion cellular
rat [2] = conditions: Subchronic oral toxicity in rodents, Fischer, Feed, dose end: 13 week, group: systemic, systemic / clinical chemistry / thyroxine (t4) / thyroxine (t4), total + systemic / clinical chemistry / triiodothyronine (t3) / …
rat [3] = conditions: Prenatal developmental toxicity study, other, Oral, Gavage/Intubation, dose end: 15 GD
rat [4] = conditions: Multigenerational reproductive toxicity study, sprague dawley, Oral, Feed, dose end: 2 generation
dog [5] = conditions: Chronic toxicity, beagle, Oral, Feed, dose end: 104 week, group: systemic
dog [6] = conditions: Subchronic oral toxicity in nonrodent, beagle, Feed, dose end: 90 day, group: systemic
rabbit = conditions: Prenatal developmental toxicity study, new zealand white, Oral, Gavage/Intubation, dose end: 28 GD
mouse [7] = conditions: Carcinogenicity, cd1, Oral, Feed, dose end: 104 week, group: systemic
dog [8] = conditions: Chronic toxicity; beagle; Oral; Capsule; dose end: 52 week; group: systemic; systemic / in life observation / body weight / body weight gain + systemic / in life observation / clinical signs / salivation + systemic / …
rat [9] = conditions: Multigenerational reproductive toxicity study, other, Oral, Gavage/Intubation, dose end: 2 generation
rat [10] = conditions: Prenatal developmental toxicity study, Charles River COBS CD rats, Oral, Gavage/Intubation, dose end: 20 GD
mouse [11] = conditions: Combined chronic toxicity/carcinogenicity, cd1, Oral, Gavage/Intubation, dose end: 24 month, group: systemic
dog [12] = conditions: Subchronic oral toxicity in nonrodent, beagle, Capsule, dose end: 13 week, group: systemic
rat [13] = conditions: Combined chronic toxicity/carcinogenicity; Oral; Gavage/Intubation; dose end: 104 week; group: systemic; systemic / in life observation / body weight / body weight gain + systemic / in life observation / water consumption / water consumption + …
rat [14] = conditions: Subchronic oral toxicity in rodents, sprague dawley, Gavage/Intubation, dose end: 13 week, group: systemic
[15] = group: developmental, developmental / developmental malformation / bone / incomplete ossification + developmental / developmental malformation / bone / wavy + …
[16] = group: maternal, systemic / in life observation / body weight / body weight gain + systemic / in life observation / food consumption / food consumption
[17] = group: maternal, systemic / in life observation / body weight / body weight gain + systemic / in life observation / food consumption / food consumption + …
[18] = group: offspring, systemic / in life observation / body weight / offspring (pup) weight
[19] = group: parental, systemic / pathology microscopic / epididymis / hypospermia + systemic / pathology microscopic / testes / atrophy + systemic / pathology …
[20] = systemic / pathology microscopic / liver / [other] + systemic / clinical chemistry / alanine aminotransferase (alt/sgpt) / alanine …
[21] = systemic / pathology microscopic / liver / [other] + systemic / in life observation / body weight / body weight gain + systemic / in life …
[22] = systemic / clinical chemistry / cholesterol / cholesterol + systemic / clinical chemistry / albumin / albumin + systemic / in life …
[23] = group: developmental, developmental / developmental malformation / kidney / small renal papilla
[24] = group: maternal, systemic / in life observation / clinical signs / body surface staining + systemic / in life observation / food consumption / food …
[25] = systemic / pathology microscopic / liver / adenoma/carcinoma combined + systemic / pathology microscopic / liver / carcinoma + systemic / …
[26] = systemic / pathology microscopic / liver / carcinoma + systemic / pathology microscopic / liver / adenoma/carcinoma combined + systemic / …
[27] = group: offspring, systemic / in life observation / clinical signs / reduced body size
[28] = group: parental, systemic / in life observation / body weight / body weight gain
[29] = group: developmental, systemic / in life observation / body weight / offspring (pup) weight
[30] = group: maternal, systemic / in life observation / body weight / body weight gain + systemic / in life observation / clinical signs / salivation
[31] = systemic / organ weight / ovary / absolute + systemic / organ weight / ovary / relative to body weight + systemic / organ weight / adrenal …
[32] = systemic / in life observation / clinical signs / watery stools
[33] = systemic / organ weight / liver / absolute + systemic / in life observation / body weight / body weight gain + systemic / in life …

Structure (SMILES): COc1cc2c(c(OC)c1OC)-c1ccc(OC)c(=O)cc1[C@@H](NC(C)=O)CC2 [Colchicine]
- LEL (rat [1]): 0.4 mg/kg/day
- LOAEL (rat [1]): > 0.4 mg/kg/day
- NEL (rat [1]): < 0.4 mg/kg/day
- NOAEL (rat [1]): ≥ 0.4 mg/kg/day

Structure (SMILES): CNC.O=C(O)COc1ccc(Cl)cc1Cl [2,4-D, Dimethylamine salt]
- LEL (rat [2]): 120 mg/kg/day
- LOAEL (rat [2]): 120 mg/kg/day
- NEL (rat [2]): 18.1 mg/kg/day
- NOAEL (rat [2]): 18.1 mg/kg/day
- LOAEL (rat [3]; [15]): 100 mg/kg/day
- NEL (rat [3]; [15]): 12.5 mg/kg/day
- NOAEL (rat [3]; [15]): 50 mg/kg/day
- LEL (rat [3]; group: developmental, developmental / developmental malformation / general / [other]): 50 mg/kg/day
- LEL (rat [3]; [16]): 50 mg/kg/day
- LOAEL (rat [3]; [16]): 50 mg/kg/day
- NEL (rat [3]; [17]): 12.5 mg/kg/day
- NOAEL (rat [3]; [17]): 12.5 mg/kg/day

Structure (SMILES): CCCCNC(=O)n1c(NC(=O)OC)nc2ccccc21 [Benomyl]
- LEL (rat [4]; [18]): 234 mg/kg/day
- LOAEL (rat [4]; [18]): 234 mg/kg/day
- NOAEL (rat [4]; [18]): 38 mg/kg/day
- NEL (rat [4]; group: offspring, systemic / in life observation / body weight / offspring (pup) weight + systemic / in life observation / clinical signs / reduced body size): 38 mg/kg/day
- LOAEL (rat [4]; group: parental, systemic / pathology microscopic / epididymis / hypospermia): 234 mg/kg/day
- NOAEL (rat [4]; group: parental, systemic / pathology microscopic / epididymis / hypospermia + systemic / in life observation / body weight / body weight + systemic / in …): 38 mg/kg/day
- LEL (rat [4]; [19]): 168 mg/kg/day
- NEL (rat [4]; [19]): 28 mg/kg/day
- LEL (dog [5]; [20]): 62.5 mg/kg/day
- LOAEL (dog [5]; [20]): 62.5 mg/kg/day
- NEL (dog [5]; [21]): 12.5 mg/kg/day
- NOAEL (dog [5]; [21]): 12.5 mg/kg/day
- LEL (dog [6]; systemic / clinical chemistry / cholesterol / cholesterol): 12.5 mg/kg/day
- LOAEL (dog [6]; systemic / clinical chemistry / cholesterol / cholesterol + systemic / clinical chemistry / alanine aminotransferase (alt/sgpt) / alanine …): 37.5 mg/kg/day
- NEL (dog [6]; [22]): 2.5 mg/kg/day
- NOAEL (dog [6]; [22]): 12.5 mg/kg/day
- LEL (rabbit; [23]): 180 mg/kg/day
- LOAEL (rabbit; [23]): 180 mg/kg/day
- NEL (rabbit; [23]): 90 mg/kg/day
- NOAEL (rabbit; [23]): 90 mg/kg/day
- LEL (rabbit; [24]): 180 mg/kg/day
- LOAEL (rabbit; [24]): 180 mg/kg/day
- NEL (rabbit; [24]): 90 mg/kg/day
- NOAEL (rabbit; [24]): 90 mg/kg/day
- LOAEL (mouse [7]; [25]): > 750 mg/kg/day
- NOAEL (mouse [7]; [25]): ≥ 750 mg/kg/day
- LEL (mouse [7]; [26]): 75 mg/kg/day
- NEL (mouse [7]; [26]): < 75 mg/kg/day

Structure (SMILES): CC1(C)[C@H](C(=O)O[C@H](C#N)c2cccc(Oc3ccccc3)c2)[C@@H]1C(Br)C(Br)(Br)Br (stereo not given in full) [Tralomethrin]
- LEL (dog [8]): 3 mg/kg/day
- LOAEL (dog [8]): 3 mg/kg/day
- NEL (dog [8]): 1 mg/kg/day
- NOAEL (dog [8]): 1 mg/kg/day
- LEL (rat [9]; [27]): 0.75 mg/kg/day
- LOAEL (rat [9]; [27]): 0.75 mg/kg/day
- NEL (rat [9]; [27]): < 0.75 mg/kg/day
- NOAEL (rat [9]; [27]): < 0.75 mg/kg/day
- LEL (rat [9]; [28]): 3 mg/kg/day
- LOAEL (rat [9]; [28]): 3 mg/kg/day
- NEL (rat [9]; [28]): 0.75 mg/kg/day
- NOAEL (rat [9]; [28]): 0.75 mg/kg/day
- LEL (rat [10]; [29]): 12 mg/kg/day
- LOAEL (rat [10]; [29]): > 12 mg/kg/day
- NEL (rat [10]; [29]): 3 mg/kg/day
- NOAEL (rat [10]; [29]): ≥ 12 mg/kg/day
- LOAEL (rat [10]; group: maternal, systemic / in life observation / body weight / body weight gain + reproductive / offspring survival early / birth index / live birth index): 12 mg/kg/day
- LEL (rat [10]; group: maternal, systemic / in life observation / body weight / body weight gain + reproductive / offspring survival early / birth index / live birth index…): 12 mg/kg/day
- NEL (rat [10]; [30]): 3 mg/kg/day
- NOAEL (rat [10]; [30]): 3 mg/kg/day
- LEL (mouse [11]; [31]): 0.75 mg/kg/day
- NEL (mouse [11]; [31]): < 0.75 mg/kg/day
- LOAEL (mouse [11]; systemic / pathology gross / skin / lesion(s) (nos)): 3 mg/kg/day
- NOAEL (mouse [11]; systemic / pathology gross / skin / lesion(s) (nos) + systemic / in life observation / clinical signs / abnormal motor movement + systemic…): 0.75 mg/kg/day
- LOAEL (dog [12]; systemic / hematology / erythrocyte (rbc) count differential / erythrocyte (rbc) + systemic / hematology / hemoglobin (hgb) / hemoglobin (…): 10 mg/kg/day
- LEL (dog [12]; [32]): 0.1 mg/kg/day
- NEL (dog [12]; [32]): < 0.1 mg/kg/day
- NOAEL (dog [12]; systemic / in life observation / clinical signs / watery stools + systemic / hematology / erythrocyte (rbc) count differential / erythrocyte…): 1 mg/kg/day
- LEL (rat [13]): 3 mg/kg/day
- LOAEL (rat [13]): 3 mg/kg/day
- NEL (rat [13]): 0.75 mg/kg/day
- NOAEL (rat [13]): 0.75 mg/kg/day
- LOAEL (rat [14]; systemic / organ weight / liver / absolute): 6 mg/kg/day
- LEL (rat [14]; systemic / organ weight / liver / absolute + systemic / in life observation / body weight / body weight gain): 6 mg/kg/day
- NEL (rat [14]; [33]): 1 mg/kg/day
- NOAEL (rat [14]; [33]): 1 mg/kg/day
